Here are results for 15 compounds from patent publication US10925876B2, “Methods for using triazolo-pyrazinyl soluble guanylate cyclase activators in fibrotic disorders” (Merck Sharp & Dohme Corp., priority 2016, dated 2021).

The target of the assay is T1, sGC α1/β1 heterodimer (Homo sapiens, UniProt Q02108+Q02153).
T1 construct: expressed in transfected cells
T1 sequence (Q02108 1-690): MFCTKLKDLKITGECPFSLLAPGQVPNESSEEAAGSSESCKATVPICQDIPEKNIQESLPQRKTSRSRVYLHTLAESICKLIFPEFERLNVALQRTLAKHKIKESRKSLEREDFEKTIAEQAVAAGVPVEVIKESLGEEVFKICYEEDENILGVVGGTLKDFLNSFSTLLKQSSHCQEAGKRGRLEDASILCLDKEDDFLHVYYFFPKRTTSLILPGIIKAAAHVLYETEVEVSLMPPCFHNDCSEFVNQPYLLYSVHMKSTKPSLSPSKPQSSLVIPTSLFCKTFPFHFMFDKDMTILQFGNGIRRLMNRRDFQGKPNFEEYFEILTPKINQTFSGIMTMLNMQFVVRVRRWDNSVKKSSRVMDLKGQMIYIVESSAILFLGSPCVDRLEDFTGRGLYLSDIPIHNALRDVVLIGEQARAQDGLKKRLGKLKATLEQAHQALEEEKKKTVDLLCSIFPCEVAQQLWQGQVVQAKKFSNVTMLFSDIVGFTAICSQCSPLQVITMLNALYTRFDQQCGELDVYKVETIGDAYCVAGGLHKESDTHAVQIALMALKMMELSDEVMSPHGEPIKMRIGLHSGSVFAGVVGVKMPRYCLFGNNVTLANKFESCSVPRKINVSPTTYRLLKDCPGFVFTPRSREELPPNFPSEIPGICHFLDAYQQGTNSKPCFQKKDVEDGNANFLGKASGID
T1 sequence (Q02153 1-619): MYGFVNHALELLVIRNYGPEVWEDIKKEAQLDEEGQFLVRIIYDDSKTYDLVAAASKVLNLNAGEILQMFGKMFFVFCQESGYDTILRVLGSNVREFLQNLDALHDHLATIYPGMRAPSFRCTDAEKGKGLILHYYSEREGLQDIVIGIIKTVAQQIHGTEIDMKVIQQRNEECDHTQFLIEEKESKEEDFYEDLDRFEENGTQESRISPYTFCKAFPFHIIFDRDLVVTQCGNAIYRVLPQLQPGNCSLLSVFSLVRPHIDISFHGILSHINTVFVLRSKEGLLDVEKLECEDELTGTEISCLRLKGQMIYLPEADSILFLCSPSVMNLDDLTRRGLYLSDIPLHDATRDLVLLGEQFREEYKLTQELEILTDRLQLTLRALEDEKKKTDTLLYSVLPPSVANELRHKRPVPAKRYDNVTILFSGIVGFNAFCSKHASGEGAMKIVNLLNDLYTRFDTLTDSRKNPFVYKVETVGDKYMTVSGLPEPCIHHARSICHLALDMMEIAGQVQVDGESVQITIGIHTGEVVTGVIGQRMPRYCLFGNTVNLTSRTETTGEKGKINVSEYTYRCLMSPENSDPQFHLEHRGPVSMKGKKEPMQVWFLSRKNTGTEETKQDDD
Kind of assay: Cell-Based sGC Functional Assay (CASA Assay), cGMP generation in CHO-K1/sGC cells. Particulars: maximum cGMP production of Compound A set to 100% activation, read-out: % Act. (percent activation relative to Compound A). The source says:
sGC is a heme-containing enzyme that converts GTP to secondary messenger cGMP. Increases in cGMP levels affect several physiological processes including vasorelaxation through multiple downstream pathways. […] Heme-dependent activators (HDAs) preferentially activate sGC containing a ferrous heme group. To determine the effect of sGC activators on enzyme activity, the CASA assay was developed to monitor the generation of cGMP in a cell line that stably expresses the heterodimeric sGC protein.
A CHO-K1 cell line stably expressing the sGC α1/β1 heterodimer was generated using a standard transfection protocol. CHO-K1 cells were transfected with plasmids pIREShyghsGCα1 and pIRESneo-hsGCβ1 simultaneously using FUGENE reagent. Clones that stably express both subunits were selected with hygromycin and neomycin for ˜2 weeks. Clone #7 was chosen for the assay and was designated CHO-K1/sGC. CHO-K1/sGC cells were maintained in F-K12 medium containing 10% heat-inactivated Fetal Bovine Serum (FBS), 100 μg/mL penicillin/streptomycin, 0.5 mg/mL hygromycin and 0.25 mg/mL G418. The cells were then cryopreserved in LN2. On the day of the assay, cells thawed and resuspended in EBSS Assay Buffer (Sigma, E3024) supplemented with 5 mM MgCl2, 10 mM HEPES (4-(2-hydroxyethyl)piperazine-1-ethanesulfonic acid) and 0.05% BSA (bovine serum albumin) (EAB) and cell density was then adjusted to 4×10^5/mL with EAB. IBMX (3-isobutyl-1-methylxanthin, 0.5 mM) was added to inhibit degradation of cGMP. Compounds were diluted from DMSO stock solutions and added to the assay at a final DMSO concentration of 2.5%. Cells were incubated with compounds in the presence and absence of 1 μM of Diethylenetriamine/nitric oxide adduct (DETA-NO; Sigma, 17018) for 1 hr at 37° C. At the end of the incubation period, the reaction was terminated and the cells were lysed with the detection reagents from Cisbio Kits. The level of intracellular cGMP was determined using an HTRF-based assay kit (CisBio, 62GM2PEC), which detects the displacement of a fluorescence labeled cGMP from its specific antibody. The cGMP produced by test compounds was directly compared to the maximum cGMP production (this value was set to equal 100% activation.) of the published sGC-HDA Compound A:
[drawing 298] (Example 1 in WO 2010/065275, published Jun. 10, 2010). The test compounds' activities were then expressed as a percentage of Compound A, the standard in every experiment. This percent activation was calculated either in the presence or absence of DETA-NO which was then plotted. IP and maximum fold induction was derived using ADA analysis software for 4P fit.

As to `CC(F)(F)c1ccc(C2(C)C(=O)Nc3nc(-c4cn5ncnc5c(CCC(F)(F)C(F)(F)F)n4)nc(N)c32)cn1` (racemic) [Example 16B, 4-amino-5-(6-(1,1-difluoroethyl)pyridin-3-yl)-5-methyl-2-(8-(3,3,4,4,4-pentafluorobutyl)-[1,2,4]triazolo[1,5-a]pyrazin-6-yl)-5H-pyrrolo[2,3-d]pyrimidin-6(7H)-one], the Emax turned out to be 77%.

On to `Cc1cnc(C2(C3CC3)C(=O)Nc3nc(-c4cn5ncnc5c(CCC(F)(F)C(F)(F)F)n4)nc(N)c32)cn1` (racemic) [Example 21B, 4-amino-5-cyclopropyl-5-(5-methylpyrazin-2-yl)-2-(8-(3,3,4,4,4-pentafluorobutyl)-[1,2,4]triazolo[1,5-a]pyrazin-6-yl)-5H-pyrrolo[2,3-d]pyrimidin-6(7H)-one], for which the Emax was 99%.

`CC(F)(F)c1ccc(C2(C)C(=O)Nc3nc(-c4cn5ncnc5c(CCCC(F)(F)F)n4)nc(N)c32)cn1` (racemic) [Example 45B, 4-amino-5-(6-(1,1-difluoroethyl)pyridin-3-yl)-5-methyl-2-(8-(4,4,4-trifluorobutyl)-[1,2,4]triazolo[1,5-a]pyrazin-6-yl)-5H-pyrrolo[2,3-d]pyrimidin-6(7H)-one]: the Emax was found to be 156%.

With `Cc1ccc(C2(C3CC3)C(=O)Nc3nc(-c4cn5ncnc5c(CCCC(F)(F)F)n4)nc(N)c32)nc1` (racemic) [Example 47B, 4-amino-5-cyclopropyl-5-(5-methylpyridin-2-yl)-2-(8-(4,4,4-trifluorobutyl)-[1,2,4]triazolo[1,5-a]pyrazin-6-yl)-5H-pyrrolo[2,3-d]pyrimidin-6(7H)-one], the Emax is 114%.

In the case of `Cc1nc(C2(C)C(=O)Nc3nc(-c4cn5ncnc5c(CCCC(F)(F)F)n4)nc(N)c32)ccc1C(F)(F)F` (racemic) [Example 49B, 4-amino-5-methyl-5-(6-methyl-5-(trifluoromethyl)pyridin-2-yl)-2-(8-(4,4,4-trifluorobutyl)-[1,2,4]triazolo[1,5-a]pyrazin-6-yl)-5H-pyrrolo[2,3-d]pyrimidin-6(7H)-one], the Emax came to 127%.

In the case of `CC1(c2ncc(C(F)(F)F)cn2)C(=O)Nc2nc(-c3cn4ncnc4c(CCCC(F)(F)F)n3)nc(N)c21` (racemic) [Example 51B, 4-amino-5-methyl-2-(8-(4,4,4-trifluorobutyl)-[1,2,4]triazolo[1,5-a]pyrazin-6-yl)-5-(5-(trifluoromethyl)pyrimidin-2-yl)-5H-pyrrolo[2,3-d]pyrimidin-6(7H)-one], the Emax is 144%.

As to `CCCCc1nc(-c2nc(N)c3c(n2)NC(=O)C3(c2ccc(C)cn2)C2CC2)cn2ncnc12` (racemic) [Example 72B, 4-amino-2-(8-butyl-[1,2,4]triazolo[1,5-a]pyrazin-6-yl)-5-cyclopropyl-5-(5-methylpyridin-2-yl)-5H-pyrrolo[2,3-d]pyrimidin-6(7H)-one], the Emax came out at 82%.

Turning to `Cc1nnc(C2(C)C(=O)Nc3nc(-c4cn5ncnc5c(CCC(F)(F)C(F)(F)F)n4)nc(N)c32)o1` (single isomer, unassigned) [Example 97B, 4-Amino-5-methyl-5-(5-methyl-1,3,4-oxadiazol-2-yl)-2-(8-(3,3,4,4,4-pentafluorobutyl)-[1,2,4]triazolo[1,5-a]pyrazin-6-yl)-5H-pyrrolo[2,3-d]pyrimidin-6(7H)-one], the Emax came out at 106%.

Regarding `Nc1nc(-c2cn3ncnc3c(CCCC(F)(F)F)n2)nc2c1C(c1ncc(C(F)(F)F)cn1)(C1CC1)C(=O)N2` (single isomer, unassigned) [Example 180B, 4-amino-5-cyclopropyl-2-(8-(4,4,4-trifluorobutyl)-[1,2,4]triazolo[1,5-a]pyrazin-6-yl)-5-(5-(trifluoromethyl)pyrimidin-2-yl)-5,7-dihydro-6H-pyrrolo[2,3-d]pyrimidin-6-one], the Emax came out at 97%.

Consider `CC1(c2ccc(Cl)c(F)c2)C(=O)Nc2nc(-c3cn4ncnc4c(CCC(F)(F)C(F)(F)F)n3)nc(N)c21` (stereo not drawn) [Example 5B, 4-amino-5-(4-chloro-3-fluorophenyl)-5-methyl-2-(8-(3,3,4,4,4-pentafluorobutyl)-[1,2,4]triazolo[1,5-a]pyrazin-6-yl)-5H-pyrrolo[2,3-d]pyrimidin-6(7H)-one], for which the Emax is 147%.

Regarding `Nc1nc(-c2cn3ncnc3c(CCC(F)(F)C(F)(F)F)n2)nc2c1C(c1ccc(F)c(F)c1)(C1CC1)C(=O)N2` (stereo not drawn) [Example 6A, 4-amino-5-cyclopropyl-5-(3,4-difluorophenyl)-2-(8-(3,3,4,4,4-pentafluorobutyl)-[1,2,4]triazolo[1,5-a]pyrazin-6-yl)-5H-pyrrolo[2,3-d]pyrimidin-6(7H)-one], the Emax came out at 140%.

On to `CC1(c2ccc(Cl)cc2)C(=O)Nc2nc(-c3cn4ncnc4c(CCC(F)(F)C(F)(F)F)n3)nc(N)c21` (stereo not drawn) [Example 10A, 4-amino-5-(4-chlorophenyl)-5-methyl-2-(8-(3,3,4,4,4-pentafluorobutyl)-[1,2,4]triazolo[1,5-a]pyrazin-6-yl)-5H-pyrrolo[2,3-d]pyrimidin-6(7H)-one], for which the Emax worked out at 137%.

For the compound `CC1(c2cccc(F)c2)C(=O)Nc2nc(-c3cn4ncnc4c(CCC(F)(F)C(F)(F)F)n3)nc(N)c21` (stereo not drawn) [Example 14B, 4-amino-5-(3-fluorophenyl)-5-methyl-2-(8-(3,3,4,4,4-pentafluorobutyl)-[1,2,4]triazolo[1,5-a]pyrazin-6-yl)-5H-pyrrolo[2,3-d]pyrimidin-6(7H)-one], the Emax came to 90%.

`Nc1nc(-c2cn3ncnc3c(CCC(F)(F)C(F)(F)F)n2)nc2c1C(c1ccc(C(F)(F)F)cn1)(C1CC1)C(=O)N2` (stereo not drawn) [Example 15A, 4-amino-5-cyclopropyl-2-(8-(3,3,4,4,4-pentafluorobutyl)-[1,2,4]triazolo[1,5-a]pyrazin-6-yl)-5-(5-(trifluoromethyl)pyridin-2-yl)-5H-pyrrolo[2,3-d]pyrimidin-6(7H)-one]: the Emax turned out to be 139%.

Consider `Cc1ccc(C2(C)C(=O)Nc3nc(-c4cn5ncnc5c(CCC(F)(F)C(F)(F)F)n4)nc(N)c32)nc1` (stereo not drawn) [Example 19B, 4-amino-5-methyl-5-(5-methylpyridin-2-yl)-2-(8-(3,3,4,4,4-pentafluorobutyl)-[1,2,4]triazolo[1,5-a]pyrazin-6-yl)-5H-pyrrolo[2,3-d]pyrimidin-6(7H)-one], for which the Emax was found to be 71%.
